From the CheMixHub ionic liquid set

Assay: xn = mol fraction of the nth substance listed
Conditions: 308.15 K, 101 kPa

CCCCCCCCCCCCCCCC[n+]1ccccc1.[Cl-] + C[C@H](N)C(=O)O + O
Conditions	electrical conductivity [S/m]
x2 = 0, x1 = 5.4e-07	0.000222
x2 = 0, x1 = 9e-07	0.00029
x2 = 0, x1 = 1.62e-06	0.0004
x2 = 0, x1 = 2.34e-06	0.000465
x2 = 0, x1 = 2.88e-06	0.000581
x2 = 0, x1 = 3.78e-06	0.000705
x2 = 0, x1 = 4.5e-06	0.000794
x2 = 0, x1 = 5.59e-06	0.000937
x2 = 0, x1 = 6.85e-06	0.00106
x2 = 0, x1 = 7.93e-06	0.001222
x2 = 0, x1 = 9.01e-06	0.001438
x2 = 0, x1 = 1.009e-05	0.00159
x2 = 0, x1 = 1.117e-05	0.001701
x2 = 0, x1 = 1.442e-05	0.00209
x2 = 0, x1 = 1.55e-05	0.00219
x2 = 0, x1 = 1.766e-05	0.00237
x2 = 0, x1 = 1.982e-05	0.00248
x2 = 0, x1 = 2.18e-05	0.00259
x2 = 0, x1 = 2.397e-05	0.00264
x2 = 0, x1 = 2.595e-05	0.00278
x2 = 0, x1 = 2.991e-05	0.00297
x2 = 0, x1 = 3.406e-05	0.00314
x2 = 0, x1 = 3.784e-05	0.00328
x2 = 0, x1 = 4.162e-05	0.00342
x2 = 0, x1 = 4.541e-05	0.00356
x2 = 0, x1 = 4.919e-05	0.00369
x2 = 0, x1 = 5.099e-05	0.00375
x2 = 0, x1 = 5.982e-05	0.00403
x2 = 0, x1 = 6.829e-05	0.00432
x2 = 0, x1 = 7.64e-05	0.00454
x2 = 0, x1 = 8.415e-05	0.00477
x2 = 0, x1 = 9.171e-05	0.00497
x2 = 0, x1 = 9.892e-05	0.00516
x2 = 0, x1 = 0.0001058	0.00533
x2 = 0, x1 = 0.0001124	0.0055
x2 = 0, x1 = 0.0001189	0.00565
x2 = 2.252e-05, x1 = 1.08e-06	0.000338
x2 = 2.252e-05, x1 = 2.34e-06	0.00063
x2 = 2.252e-05, x1 = 3.42e-06	0.000917
x2 = 2.252e-05, x1 = 4.69e-06	0.00119
x2 = 2.252e-05, x1 = 5.77e-06	0.00147
x2 = 2.252e-05, x1 = 6.85e-06	0.001711
x2 = 2.252e-05, x1 = 7.93e-06	0.001903
x2 = 2.252e-05, x1 = 9.19e-06	0.00208
x2 = 2.252e-05, x1 = 1.027e-05	0.00219
x2 = 2.252e-05, x1 = 1.135e-05	0.00241
x2 = 2.252e-05, x1 = 1.243e-05	0.00258
x2 = 2.252e-05, x1 = 1.352e-05	0.00273
x2 = 2.252e-05, x1 = 1.46e-05	0.00288
x2 = 2.252e-05, x1 = 1.568e-05	0.00298
x2 = 2.252e-05, x1 = 1.784e-05	0.00318
x2 = 2.252e-05, x1 = 2e-05	0.00331
x2 = 2.252e-05, x1 = 2.217e-05	0.00341
x2 = 2.252e-05, x1 = 2.433e-05	0.00351
x2 = 2.252e-05, x1 = 2.631e-05	0.00358
x2 = 2.252e-05, x1 = 3.046e-05	0.00382
x2 = 2.252e-05, x1 = 3.442e-05	0.00393
x2 = 2.252e-05, x1 = 3.838e-05	0.00411
x2 = 2.252e-05, x1 = 4.235e-05	0.00422
x2 = 2.252e-05, x1 = 4.613e-05	0.00439
x2 = 2.252e-05, x1 = 4.992e-05	0.00462
x2 = 2.252e-05, x1 = 5.172e-05	0.00468
x2 = 2.252e-05, x1 = 6.073e-05	0.00486
x2 = 2.252e-05, x1 = 6.938e-05	0.00502
x2 = 2.252e-05, x1 = 7.767e-05	0.00529
x2 = 2.252e-05, x1 = 8.542e-05	0.00541
x2 = 2.252e-05, x1 = 9.316e-05	0.00565
x2 = 2.252e-05, x1 = 0.0001004	0.00593
x2 = 2.252e-05, x1 = 0.0001074	0.00614
x2 = 2.252e-05, x1 = 0.0001142	0.00629
x2 = 2.252e-05, x1 = 0.0001207	0.00635
x2 = 0.0003926, x1 = 6.912e-05	0.0057
x2 = 0.0003926, x1 = 7.742e-05	0.00596
x2 = 0.0003927, x1 = 1.08e-06	0.000964
x2 = 0.0003927, x1 = 2.35e-06	0.00116
x2 = 0.0003927, x1 = 3.43e-06	0.00138
x2 = 0.0003927, x1 = 4.51e-06	0.001535
x2 = 0.0003927, x1 = 5.78e-06	0.00176
x2 = 0.0003927, x1 = 6.86e-06	0.001924
x2 = 0.0003927, x1 = 7.94e-06	0.00212
x2 = 0.0003927, x1 = 9.02e-06	0.00222
x2 = 0.0003927, x1 = 1.029e-05	0.0024
x2 = 0.0003927, x1 = 1.137e-05	0.00252
x2 = 0.0003927, x1 = 1.245e-05	0.00271
x2 = 0.0003927, x1 = 1.354e-05	0.00279
x2 = 0.0003927, x1 = 1.462e-05	0.00297
x2 = 0.0003927, x1 = 1.57e-05	0.00311
x2 = 0.0003927, x1 = 1.787e-05	0.0034
x2 = 0.0003927, x1 = 2.003e-05	0.0035
x2 = 0.0003927, x1 = 2.22e-05	0.00366
x2 = 0.0003927, x1 = 2.418e-05	0.00389
x2 = 0.0003927, x1 = 2.635e-05	0.00397
x2 = 0.0003927, x1 = 3.032e-05	0.00414
x2 = 0.0003927, x1 = 3.447e-05	0.00426
x2 = 0.0003927, x1 = 3.844e-05	0.00448
x2 = 0.0003927, x1 = 4.223e-05	0.00473
x2 = 0.0003927, x1 = 4.602e-05	0.00487
x2 = 0.0003927, x1 = 4.981e-05	0.00495
x2 = 0.0003927, x1 = 5.161e-05	0.00502
x2 = 0.0003927, x1 = 6.064e-05	0.00532
